Test results: patent US7256211B1, “8-azaprostaglandin derivatives and medical use thereof” (ONO Pharmaceutical Co., Ltd., priority 2003, dated 2007)

Target: T1, EP4 receptor (Mus musculus, UniProt P32240)
T1 construct: expressed in transfected cells; host or cells: CHO cells (membrane fraction)
Assay: Receptor-binding experiment using CHO cell membranes expressing prostanoid receptor sub-types (3H-PGE2 displacement)
Conditions: membrane fraction of CHO cells expressing murine EP4; 3H-PGE2 2.5 nM; Ki=IC50/(1+([C]/Kd))
Protocol: (i) Experiment for Receptor-Binding Using Cells which Express Prostanoid Receptor Sub-Types
According to the method of Sugimoto et al. (J. Biol. Chem., 267, 6463–6466 ([…])), CHO cells which expressed prostanoid receptor sub-types (murine EP1, EP2, EP3α, and EP4 respectively) were prepared and used as membrane authentic samples.
A reaction solution (200 μL) containing the prepared membrane fraction (0.5 mg/ml) and ^3H-PGE2 was incubated at room temperature for an hour. The reaction was terminated with ice cold buffer (3 mL), and the reaction mixture was suction filtrated under reduced pressure through a glass filter (GF/B), on which the binding ^3H-PGE2 was trapped, and the binding radioactivity was measured by means of a liquid scintillator.
The Kd value was obtained from the Scatchard plots (Ann. N.Y. Acad. Sci., 51, 660 (1949)). Non-specific binding was obtained as the binding in the presence of an excess amount (2.5 μM) of unlabelled PGE2. Measurement of the binding inhibition for ^3H-PGE2 with the compounds of the invention was performed by adding ^3H-PGE2 (2.5 nM) and a series of concentrations of the compounds of the invention. In this reaction, the following buffer was used in all cases. • Buffer: 10 mM potassium phosphate (pH6.0), 1 mM EDTA, 10 mM MgCl2 and 0.1M NaCl.
Dissociation constant Ki (μM) of each compounds was calculated from the following equation. […]

T1 sequence (P32240 whole entry): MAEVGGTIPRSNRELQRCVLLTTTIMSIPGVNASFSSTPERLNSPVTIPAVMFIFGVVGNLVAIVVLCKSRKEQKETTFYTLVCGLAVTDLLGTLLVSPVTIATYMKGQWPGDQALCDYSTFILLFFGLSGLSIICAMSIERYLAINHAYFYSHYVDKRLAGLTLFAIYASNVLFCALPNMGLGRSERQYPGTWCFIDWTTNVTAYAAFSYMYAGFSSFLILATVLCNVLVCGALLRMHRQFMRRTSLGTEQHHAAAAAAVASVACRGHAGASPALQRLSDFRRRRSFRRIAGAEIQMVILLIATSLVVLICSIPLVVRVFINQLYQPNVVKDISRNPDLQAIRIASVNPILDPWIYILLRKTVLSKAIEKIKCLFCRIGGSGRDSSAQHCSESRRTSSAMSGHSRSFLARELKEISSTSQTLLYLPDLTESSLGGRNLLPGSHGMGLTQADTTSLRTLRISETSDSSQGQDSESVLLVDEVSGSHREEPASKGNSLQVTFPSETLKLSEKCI

Ki: 6.4 nM
SMILES: Cc1cc(C)cc(C[C@H](O)/C=C/[C@H]2CCC(=O)N2CCc2ccc(C(=O)O)cc2)c1 [Example 5, (15α,13E)-1,6-(1,4-interphenylene)-9-oxo-15-hydroxy-16-(3,5-dimethylphenyl)-2,3,4,5,17,18,19,20-octanol-8-azaprost-13-enoic acid]
